Laboratory results: the OligoGym collection
Oligonucleotides are written 5' to 3', each unit as a sugar letter and its base; * is a phosphorothioate linkage, no mark a phosphodiester; rarer units and linkages stand in square brackets, end groups in braces. Plain capitals give the bases only. d = 2'-deoxy (DNA); r = 2'-OH (RNA)

Target: UBE2G1
Assay: reporter assay of Huesken 2005
Conditions: siRNA
Note: test concentration or dose not given here.

Substance | normalised inhibition (eCFP-eYFP dual reporter)
sense rGrCrUrGrCrGrArArArGrArArUrGrGrArGrGrGdTdT / antisense rCrCrCrUrCrCrArUrUrCrUrUrUrCrGrCrArGrCdAdT | 63.8%
sense rGrArArGrUrCrCrUrUrArUrUrArUrUrGrGrCrCdTdT / antisense rGrGrCrCrArArUrArArUrArArGrGrArCrUrUrCdCdC | 87.6%
sense rUrCrCrUrUrArUrUrArUrUrGrGrCrCrCrUrCrCdTdT / antisense rGrGrArGrGrGrCrCrArArUrArArUrArArGrGrAdCdT | 44.7%
sense rArUrArArGrUrArUrGrGrUrUrArUrGrArArArAdTdT / antisense rUrUrUrUrCrArUrArArCrCrArUrArCrUrUrArUdCdT | 69.3%
sense rGrUrUrArUrGrArArArArGrCrCrArGrArGrGrAdTdT / antisense rUrCrCrUrCrUrGrGrCrUrUrUrUrCrArUrArArCdCdA | 49.3%
sense rCrCrUrGrCrUrArArUrGrUrUrGrArUrGrCrUrGdTdT / antisense rCrArGrCrArUrCrArArCrArUrUrArGrCrArGrGdTdG | 97.5%
sense rUrUrCrUrArUrGrCrUrGrGrCrArGrArCrCrCrUdTdT / antisense rArGrGrGrUrCrUrGrCrCrArGrCrArUrArGrArAdAdT | 61%
sense rUrGrGrUrGrArUrGrUrGrUrGrCrArUrUrUrCrUdTdT / antisense rArGrArArArUrGrCrArCrArCrArUrCrArCrCrAdTdT | 85%
sense rGrCrCrCrUrCrCrArGrArUrArCrArCrUrUrUrAdTdT / antisense rUrArArArGrUrGrUrArUrCrUrGrGrArGrGrGrCdCdA | 75.2%
sense rUrGrArUrGrUrGrUrGrCrArUrUrUrCrUrArUrUdTdT / antisense rArArUrArGrArArArUrGrCrArCrArCrArUrCrAdCdC | 74.8%
sense rCrArUrUrArCrArGrArArArUrCrUrGrGrCrArCdTdT / antisense rGrUrGrCrCrArGrArUrUrUrCrUrGrUrArArUrGdAdA | 50.1%
sense rUrGrCrCrCrGrCrUrGrUrGrUrArArGrArArArAdTdT / antisense rUrUrUrUrCrUrUrArCrArCrArGrCrGrGrGrCrAdAdC | 94.3%
sense rUrArCrCrGrArUrGrGrGrArArGrUrCrCrUrUrAdTdT / antisense rUrArArGrGrArCrUrUrCrCrCrArUrCrGrGrUrAdGdA | 93.1%
sense rUrGrArUrUrArGrUrGrUrCrArUrUrUrCrUrArUdTdT / antisense rArUrArGrArArArUrGrArCrArCrUrArArUrCrAdTdG | 78.5%
sense rArGrArUrArCrArCrUrUrUrArUrGrArArGrGrUdTdT / antisense rArCrCrUrUrCrArUrArArArGrUrGrUrArUrCrUdGdG | 78.7%
sense rUrUrArGrUrGrUrCrArUrUrUrCrUrArUrGrCrUdTdT / antisense rArGrCrArUrArGrArArArUrGrArCrArCrUrArAdTdC | 54%
sense rUrGrGrArGrArArUrUrUrArArArArGrArArArAdTdT / antisense rUrUrUrUrCrUrUrUrUrArArArUrUrCrUrCrCrAdTdT | 74.2%
sense rArGrCrCrUrGrGrGrGrArArGrArUrArArGrUrAdTdT / antisense rUrArCrUrUrArUrCrUrUrCrCrCrCrArGrGrCrUdCdA | 78.6%
sense rCrUrGrGrGrGrArArGrArUrArArGrUrArUrGrGdTdT / antisense rCrCrArUrArCrUrUrArUrCrUrUrCrCrCrCrArGdGdC | 55%
sense rArArArArGrCrCrArGrArGrGrArArCrGrCrUrGdTdT / antisense rCrArGrCrGrUrUrCrCrUrCrUrGrGrCrUrUrUrUdCdA | 32.6%
sense rArGrCrCrArGrArGrGrArArCrGrCrUrGrGrCrUdTdT / antisense rArGrCrCrArGrCrGrUrUrCrCrUrCrUrGrGrCrUdTdT | 37.8%
sense rArArUrCrUrGrGrCrArCrCrCrArArArUrGrUrUdTdT / antisense rArArCrArUrUrUrGrGrGrUrGrCrCrArGrArUrUdTdC | 73.4%
sense rGrGrArArGrUrCrCrUrUrArUrUrArUrUrGrGrCdTdT / antisense rGrCrCrArArUrArArUrArArGrGrArCrUrUrCrCdCdA | 71%
sense rUrCrArUrGrArGrCrCrUrGrGrGrGrArArGrArUdTdT / antisense rArUrCrUrUrCrCrCrCrArGrGrCrUrCrArUrGrAdAdG | 76.4%
sense rArCrCrUrCrCrUrArArArArUrGrArArArUrUrCdTdT / antisense rGrArArUrUrUrCrArUrUrUrUrArGrGrArGrGrUdCdG | 39.5%
sense rCrArUrGrArGrCrCrUrGrGrGrGrArArGrArUrAdTdT / antisense rUrArUrCrUrUrCrCrCrCrArGrGrCrUrCrArUrGdAdA | 76%

Substance | normalised inhibition (eCFP-eYFP dual reporter)
sense rArArGrCrCrArGrArGrGrArArCrGrCrUrGrGrCdTdT / antisense rGrCrCrArGrCrGrUrUrCrCrUrCrUrGrGrCrUrUdTdT | 35.9%
sense rUrGrCrUrGrCrGrArArArGrArArUrGrGrArGrGdTdT / antisense rCrCrUrCrCrArUrUrCrUrUrUrCrGrCrArGrCrAdTdC | 34.4%
sense rArUrGrGrUrUrArUrGrArArArArGrCrCrArGrAdTdT / antisense rUrCrUrGrGrCrUrUrUrUrCrArUrArArCrCrArUdAdC | 39.2%
sense rUrCrCrCrUrArUrCrCrArCrArCrUrGrUrGrGrAdTdT / antisense rUrCrCrArCrArGrUrGrUrGrGrArUrArGrGrGrAdGdC | 62.1%
sense rCrUrCrCrCrUrArUrCrCrArCrArCrUrGrUrGrGdTdT / antisense rCrCrArCrArGrUrGrUrGrGrArUrArGrGrGrArGdCdC | 62.9%
sense rGrArUrArArGrUrArUrGrGrUrUrArUrGrArArAdTdT / antisense rUrUrUrCrArUrArArCrCrArUrArCrUrUrArUrCdTdT | 87.7%
sense rArArUrGrUrUrGrArUrGrCrUrGrCrGrArArArGdTdT / antisense rCrUrUrUrCrGrCrArGrCrArUrCrArArCrArUrUdAdG | 93.5%
sense rUrUrUrCrUrGrCrArGrGrUrUrUrArArUrArGrAdTdT / antisense rUrCrUrArUrUrArArArCrCrUrGrCrArGrArArAdAdG | 51.7%
sense rArCrArCrUrGrUrGrGrArArArCrCrArUrCrArUdTdT / antisense rArUrGrArUrGrGrUrUrUrCrCrArCrArGrUrGrUdGdG | 89.3%
sense rGrArUrUrArUrCrCrCrCrUrCrCrGrArCrCrUrCdTdT / antisense rGrArGrGrUrCrGrGrArGrGrGrGrArUrArArUrCdTdT | 84.7%
sense rArUrCrUrCrUrArCrCrGrArUrGrGrGrArArGrUdTdT / antisense rArCrUrUrCrCrCrArUrCrGrGrUrArGrArGrArUdCdA | 67.7%
sense rGrCrUrGrGrCrUrCrCrCrUrArUrCrCrArCrArCdTdT / antisense rGrUrGrUrGrGrArUrArGrGrGrArGrCrCrArGrCdGdT | 64%
sense rArUrCrCrArGrUrGrGrArArGrGrCrUrUrUrUrCdTdT / antisense rGrArArArArGrCrCrUrUrCrCrArCrUrGrGrArUdTdT | 65.4%
sense rUrCrUrGrCrArGrGrUrUrUrArArUrArGrArUrGdTdT / antisense rCrArUrCrUrArUrUrArArArCrCrUrGrCrArGrAdAdA | 60.6%
sense rArCrCrUrGrCrUrArArUrGrUrUrGrArUrGrCrUdTdT / antisense rArGrCrArUrCrArArCrArUrUrArGrCrArGrGrUdGdA | 93.9%
sense rUrUrUrArArArArGrArArArArGrUrUrGrCrCrCdTdT / antisense rGrGrGrCrArArCrUrUrUrUrCrUrUrUrUrArArAdTdT | 43.5%
sense rCrArGrGrUrUrUrArArUrArGrArUrGrArCrArAdTdT / antisense rUrUrGrUrCrArUrCrUrArUrUrArArArCrCrUrGdCdA | 97.5%
sense rArArCrCrArUrCrArUrGrArUrUrArGrUrGrUrCdTdT / antisense rGrArCrArCrUrArArUrCrArUrGrArUrGrGrUrUdTdC | 65.4%
sense rGrGrArArArCrCrArUrCrArUrGrArUrUrArGrUdTdT / antisense rArCrUrArArUrCrArUrGrArUrGrGrUrUrUrCrCdAdC | 54.4%
sense rUrArUrGrGrUrUrArUrGrArArArArGrCrCrArGdTdT / antisense rCrUrGrGrCrUrUrUrUrCrArUrArArCrCrArUrAdCdT | 31.8%
sense rGrArGrArArUrUrUrArArArArGrArArArArGrUdTdT / antisense rArCrUrUrUrUrCrUrUrUrUrArArArUrUrCrUrCdCdA | 56.4%
sense rUrCrCrArCrArCrUrGrUrGrGrArArArCrCrArUdTdT / antisense rArUrGrGrUrUrUrCrCrArCrArGrUrGrUrGrGrAdTdA | 85.3%
sense rArUrGrUrUrGrArUrGrCrUrGrCrGrArArArGrAdTdT / antisense rUrCrUrUrUrCrGrCrArGrCrArUrCrArArCrArUdTdA | 104%
sense rCrUrCrCrUrArArArArUrGrArArArUrUrCrArUdTdT / antisense rArUrGrArArUrUrUrCrArUrUrUrUrArGrGrArGdGdT | 87.9%
sense rCrArGrArGrGrArArCrGrCrUrGrGrCrUrCrCrCdTdT / antisense rGrGrGrArGrCrCrArGrCrGrUrUrCrCrUrCrUrGdGdC | 42.5%
sense rUrCrUrGrGrCrArCrCrCrArArArUrGrUrUrGrAdTdT / antisense rUrCrArArCrArUrUrUrGrGrGrUrGrCrCrArGrAdTdT | 73.4%
